# Experimental data as given in ChEMBL document CHEMBL3885861, “Open TG-GATES”.
# Species: Rattus norvegicus
# Assay: Open TG-GATES - Regimen: Daily Repeat
# Type: toxicity, organism-based, Sprague-Dawley
# Design: regimen Daily Repeat, gender Male, age 6 weeks
# Settings: in vivo, po, route gavage; for GLC / IP / K / LDH / Na / PL / RALB / TBIL / TC / TG / TP / gamma-GTP / A/G / ALP / ALT / AST / BUN / CRE / Ca / Cl / DBIL: tissue Plasma; for APTT / Bas / Eos / Fbg / Hb / Ht / Lym / MCH / MCHC / MCV / Mono / Neu / PT / Plat / RBC / Ret / WBC: tissue Blood; for KIDNEY_L / KIDNEY_R / KIDNEY_TOTAL: tissue Kidney; for LIVER: tissue Liver
# [1] = 10 mg/kg, […], dose level Middle, time 14 day
# [2] = 10 mg/kg, […], dose level Middle, time 28 day
# [3] = 30 mg/kg, 72 h, dose level High, time 3 day
# [4] = 30 mg/kg, […], dose level High, time 7 day
# [5] = 30 mg/kg, […], dose level High, time 14 day
compound,measurement,setting,value
CCN(CC)N=O [N-NITROSODIETHYLAMINE],GLC,[1],180 mg/dL
same,IP,[1],7 mg/dL
same,K,[1],3.8 meq/L
same,LDH,[1],259 IU/L
same,Na,[1],140.2 meq/L
same,PL,[1],140.2 mg/dL
same,RALB,[1],3.4 g/dL
same,TBIL,[1],0.2 mg/dL
same,TC,[1],70.4 mg/dL
same,TG,[1],67.6 mg/dL
same,TP,[1],5.5 g/dL
same,gamma-GTP,[1],2.2 IU/L
same,A/G,[2],1.7
same,ALP,[2],1261.4 IU/L
same,ALT,[2],69 IU/L
same,AST,[2],110.4 IU/L
same,BUN,[2],15 mg/dL
same,CRE,[2],0.5 mg/dL
same,Ca,[2],9.9 mg/dL
same,Cl,[2],103.6 meq/L
same,DBIL,[2],0.1 mg/dL
same,GLC,[2],165.8 mg/dL
same,IP,[2],5.9 mg/dL
same,K,[2],3.5 meq/L
same,LDH,[2],242 IU/L
same,Na,[2],140.6 meq/L
same,PL,[2],146.2 mg/dL
same,RALB,[2],3.3 g/dL
same,TBIL,[2],0.2 mg/dL
same,TC,[2],70.8 mg/dL
same,TG,[2],79.2 mg/dL
same,TP,[2],5.3 g/dL
same,gamma-GTP,[2],3.2 IU/L
same,TERMINAL_BW,[3],209.6 g
same,APTT,[3],17.1 s
same,Bas,[3],0.6%
same,Eos,[3],1.4%
same,Fbg,[3],211.6 mg/dL
same,Hb,[3],15.6 g/dL
same,Ht,[3],44.7%
same,Lym,[3],81.2%
same,MCH,[3],21.3 pg
same,MCHC,[3],34.8%
same,MCV,[3],61.1 fL
same,Mono,[3],3.4%
same,Neu,[3],12.6%
same,PT,[3],14.2 s
same,Plat,[3],134.9 x10_4/uL
same,RBC,[3],732.4 x10_4/ul
same,Ret,[3],4%
same,WBC,[3],84.6 x10_2/uL
same,KIDNEY_L,[3],1 g
same,KIDNEY_R,[3],0.9 g
same,KIDNEY_TOTAL,[3],1.9 g
same,LIVER,[3],7.6 g
same,A/G,[3],1.8
same,ALP,[3],979.2 IU/L
same,ALT,[3],64.4 IU/L
same,AST,[3],196.8 IU/L
same,BUN,[3],12.4 mg/dL
same,CRE,[3],0.4 mg/dL
same,Ca,[3],10.4 mg/dL
same,Cl,[3],103.2 meq/L
same,DBIL,[3],0.1 mg/dL
same,GLC,[3],174.6 mg/dL
same,IP,[3],7.5 mg/dL
same,K,[3],4 meq/L
same,LDH,[3],316.8 IU/L
same,Na,[3],140.4 meq/L
same,PL,[3],135.8 mg/dL
same,RALB,[3],3.4 g/dL
same,TBIL,[3],0.2 mg/dL
same,TC,[3],80.6 mg/dL
same,TG,[3],59.4 mg/dL
same,TP,[3],5.2 g/dL
same,gamma-GTP,[3],1.6 IU/L
same,TERMINAL_BW,[4],200.4 g
same,TERMINAL_BW,[5],195.1 g
same,APTT,[4],21.4 s
same,Bas,[4],1%
same,Eos,[4],1%
same,Fbg,[4],153.6 mg/dL
same,Hb,[4],17.4 g/dL
same,Ht,[4],49%
same,Lym,[4],76%
same,MCH,[4],21.1 pg
same,MCHC,[4],35.6%
same,MCV,[4],59.2 fL
same,Mono,[4],4.4%
same,Neu,[4],17.4%
same,PT,[4],19.5 s
same,Plat,[4],126.6 x10_4/uL
same,RBC,[4],827 x10_4/ul
same,Ret,[4],1.6%
same,WBC,[4],117.4 x10_2/uL
same,APTT,[5],87.2 s
same,Bas,[5],1%
same,Eos,[5],0%
same,Fbg,[5],66 mg/dL
same,Hb,[5],16.7 g/dL
same,Ht,[5],48.8%
same,Lym,[5],26%
same,MCH,[5],20.7 pg
same,MCHC,[5],34.2%
same,MCV,[5],60.5 fL
same,Mono,[5],7%
same,Neu,[5],65%
same,PT,[5],63.4 s
same,Plat,[5],112.1 x10_4/uL
same,RBC,[5],807 x10_4/ul
same,Ret,[5],3.6%
same,WBC,[5],108.1 x10_2/uL
same,KIDNEY_L,[4],0.9 g
same,KIDNEY_R,[4],0.9 g
same,KIDNEY_TOTAL,[4],1.8 g
same,KIDNEY_L,[5],1.2 g
same,KIDNEY_R,[5],1.2 g
same,KIDNEY_TOTAL,[5],2.4 g
same,LIVER,[4],4.6 g
same,LIVER,[5],2.7 g
same,A/G,[4],2
same,ALP,[4],1514 IU/L
same,ALT,[4],160.2 IU/L
same,AST,[4],315.6 IU/L
same,BUN,[4],12.6 mg/dL
same,CRE,[4],0.4 mg/dL
same,Ca,[4],9.6 mg/dL
same,Cl,[4],104.2 meq/L
same,DBIL,[4],0.7 mg/dL
same,GLC,[4],140.4 mg/dL
same,IP,[4],7 mg/dL
same,K,[4],3.9 meq/L
same,LDH,[4],465.4 IU/L
same,Na,[4],138.6 meq/L
same,PL,[4],171 mg/dL
same,RALB,[4],2.9 g/dL
same,TBIL,[4],0.9 mg/dL
same,TC,[4],109 mg/dL
same,TG,[4],27.4 mg/dL
same,TP,[4],4.4 g/dL
same,gamma-GTP,[4],9.2 IU/L
same,A/G,[5],2.8
same,ALP,[5],1357 IU/L
same,ALT,[5],206 IU/L
same,AST,[5],748 IU/L
same,BUN,[5],47 mg/dL
same,CRE,[5],0.7 mg/dL
same,Ca,[5],9.4 mg/dL
same,Cl,[5],90 meq/L
same,DBIL,[5],4.2 mg/dL
same,GLC,[5],61 mg/dL
same,IP,[5],9.2 mg/dL
same,K,[5],4.5 meq/L
same,LDH,[5],983 IU/L
same,Na,[5],130 meq/L
same,PL,[5],245 mg/dL
same,RALB,[5],2.2 g/dL
same,TBIL,[5],5.1 mg/dL
same,TC,[5],231 mg/dL
same,TG,[5],88 mg/dL
same,TP,[5],3 g/dL
same,gamma-GTP,[5],16 IU/L
